Test results reported in ChEMBL document CHEMBL4425188, “Synthesis and immunostimulatory activity of substituted TLR7 agonists” (Bioorg Med Chem Lett, 2016).
Activity calls are given as the source filed them. The rule behind the calls is not given here.

How the values were obtained:
[1] = target: T1, Toll-like receptor 9 (Homo sapiens) (UniProt Q9NR96); assay: Agonist activity at human TLR9 expressed in HEK293 cells at 5 to 1000 ng/ml by QUANTI-blue SEAP reporter gene assay; type: cell-based
T1 sequence (whole entry): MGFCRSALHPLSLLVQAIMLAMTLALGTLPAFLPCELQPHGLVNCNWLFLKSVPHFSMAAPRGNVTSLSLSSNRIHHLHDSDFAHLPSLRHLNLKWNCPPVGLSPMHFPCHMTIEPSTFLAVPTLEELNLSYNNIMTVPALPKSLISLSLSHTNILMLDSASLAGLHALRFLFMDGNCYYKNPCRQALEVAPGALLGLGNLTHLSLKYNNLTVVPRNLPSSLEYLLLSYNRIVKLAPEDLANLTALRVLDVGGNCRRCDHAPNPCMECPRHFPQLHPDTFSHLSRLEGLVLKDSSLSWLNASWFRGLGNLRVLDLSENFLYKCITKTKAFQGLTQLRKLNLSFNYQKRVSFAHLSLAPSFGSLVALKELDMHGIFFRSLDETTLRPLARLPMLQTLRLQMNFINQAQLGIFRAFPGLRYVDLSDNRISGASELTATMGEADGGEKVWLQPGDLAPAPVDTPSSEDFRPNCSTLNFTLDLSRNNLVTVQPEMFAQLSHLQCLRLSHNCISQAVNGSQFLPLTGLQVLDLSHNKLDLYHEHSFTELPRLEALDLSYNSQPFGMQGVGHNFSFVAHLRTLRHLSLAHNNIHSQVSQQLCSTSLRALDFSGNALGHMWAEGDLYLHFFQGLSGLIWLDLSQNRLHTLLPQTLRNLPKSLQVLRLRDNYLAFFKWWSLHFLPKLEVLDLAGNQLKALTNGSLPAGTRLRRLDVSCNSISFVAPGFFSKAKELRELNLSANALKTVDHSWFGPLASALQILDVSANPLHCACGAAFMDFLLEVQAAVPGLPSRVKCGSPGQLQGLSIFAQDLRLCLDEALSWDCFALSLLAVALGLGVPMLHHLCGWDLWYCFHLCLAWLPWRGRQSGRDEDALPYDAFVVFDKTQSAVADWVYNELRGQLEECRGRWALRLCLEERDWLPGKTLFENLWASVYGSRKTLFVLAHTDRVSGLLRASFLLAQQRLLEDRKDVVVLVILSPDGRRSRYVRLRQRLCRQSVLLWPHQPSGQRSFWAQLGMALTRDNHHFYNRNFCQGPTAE

HEK293 = assay: Induction of SEAP reporter gene expression in TLR-deficient HEK293 cells at 5 to 1000 ng/ml; type: functional, cell-based; details: Homo sapiens
[2] = target: T2, Toll-like receptor 7 (Homo sapiens) (UniProt Q9NYK1); assay: Agonist activity at human TLR7 expressed in HEK293 cells at 1 ng/ml by QUANTI-blue SEAP reporter gene assay; type: cell-based
T2 sequence (whole entry): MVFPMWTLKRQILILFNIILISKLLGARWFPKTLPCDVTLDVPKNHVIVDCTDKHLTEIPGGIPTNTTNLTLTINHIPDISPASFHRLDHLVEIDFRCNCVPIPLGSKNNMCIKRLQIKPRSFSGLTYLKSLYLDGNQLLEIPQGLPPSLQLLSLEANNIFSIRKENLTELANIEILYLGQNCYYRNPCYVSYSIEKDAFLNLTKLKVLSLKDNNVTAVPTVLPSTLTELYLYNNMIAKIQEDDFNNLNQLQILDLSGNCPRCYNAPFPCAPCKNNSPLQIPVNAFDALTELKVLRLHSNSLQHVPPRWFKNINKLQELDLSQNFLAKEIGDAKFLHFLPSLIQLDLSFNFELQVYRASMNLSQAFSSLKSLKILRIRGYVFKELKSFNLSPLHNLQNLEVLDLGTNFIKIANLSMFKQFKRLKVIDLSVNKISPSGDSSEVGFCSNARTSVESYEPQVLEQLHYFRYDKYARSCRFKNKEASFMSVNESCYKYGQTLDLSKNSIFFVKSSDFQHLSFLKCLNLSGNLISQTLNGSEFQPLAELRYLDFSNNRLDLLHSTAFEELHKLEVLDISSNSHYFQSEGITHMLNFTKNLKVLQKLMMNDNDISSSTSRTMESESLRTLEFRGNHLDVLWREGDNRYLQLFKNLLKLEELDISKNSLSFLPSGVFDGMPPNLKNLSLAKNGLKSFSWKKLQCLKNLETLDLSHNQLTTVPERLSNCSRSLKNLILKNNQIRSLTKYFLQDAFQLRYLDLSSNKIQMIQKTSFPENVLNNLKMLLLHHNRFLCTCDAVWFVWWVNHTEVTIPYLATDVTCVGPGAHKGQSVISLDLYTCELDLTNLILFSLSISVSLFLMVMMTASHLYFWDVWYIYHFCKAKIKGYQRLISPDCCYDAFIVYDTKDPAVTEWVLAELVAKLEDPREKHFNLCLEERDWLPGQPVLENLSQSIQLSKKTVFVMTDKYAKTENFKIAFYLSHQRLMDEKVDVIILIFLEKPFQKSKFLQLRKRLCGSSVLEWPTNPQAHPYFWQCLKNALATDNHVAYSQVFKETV

[3] = target: T3, Toll-like receptor 8 (Homo sapiens) (UniProt Q9NR97); assay: Agonist activity at human TLR8 expressed in HEK293 cells at 5 to 1000 ng/ml by QUANTI-blue SEAP reporter gene assay; type: cell-based
T3 sequence (whole entry): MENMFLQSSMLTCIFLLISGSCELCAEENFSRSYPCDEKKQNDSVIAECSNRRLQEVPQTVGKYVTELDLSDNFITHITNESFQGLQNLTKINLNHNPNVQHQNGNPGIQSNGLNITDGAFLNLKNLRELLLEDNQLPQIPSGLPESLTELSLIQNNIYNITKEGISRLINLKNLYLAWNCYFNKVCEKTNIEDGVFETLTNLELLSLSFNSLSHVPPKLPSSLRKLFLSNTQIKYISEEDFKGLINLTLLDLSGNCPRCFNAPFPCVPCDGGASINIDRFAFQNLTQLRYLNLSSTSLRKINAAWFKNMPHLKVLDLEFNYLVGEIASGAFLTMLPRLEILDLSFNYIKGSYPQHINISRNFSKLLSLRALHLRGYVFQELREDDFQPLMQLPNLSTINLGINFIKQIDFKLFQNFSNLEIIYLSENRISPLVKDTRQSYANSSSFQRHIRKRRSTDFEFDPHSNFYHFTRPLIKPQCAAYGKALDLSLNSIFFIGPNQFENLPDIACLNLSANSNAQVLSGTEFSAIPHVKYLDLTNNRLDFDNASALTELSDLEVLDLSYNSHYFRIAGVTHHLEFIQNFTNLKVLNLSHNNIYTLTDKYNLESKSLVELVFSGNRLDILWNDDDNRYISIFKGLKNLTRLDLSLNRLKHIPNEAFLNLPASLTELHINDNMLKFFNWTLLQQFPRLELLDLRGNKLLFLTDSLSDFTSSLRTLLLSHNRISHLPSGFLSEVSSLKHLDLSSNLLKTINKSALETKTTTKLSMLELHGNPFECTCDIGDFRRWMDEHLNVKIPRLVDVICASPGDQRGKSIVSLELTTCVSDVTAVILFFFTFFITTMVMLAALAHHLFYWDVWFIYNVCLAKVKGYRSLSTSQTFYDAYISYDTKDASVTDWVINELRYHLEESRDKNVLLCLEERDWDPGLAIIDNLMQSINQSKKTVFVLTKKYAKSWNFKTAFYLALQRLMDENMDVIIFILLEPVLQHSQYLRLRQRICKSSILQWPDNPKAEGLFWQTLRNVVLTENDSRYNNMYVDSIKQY

[4] = target: T2, Toll-like receptor 7 (Homo sapiens); assay: Agonist activity at human TLR7 expressed in HEK293 cells at <= 50 ng/ml by QUANTI-blue SEAP reporter gene assay; type: cell-based
Homo sapiens = species on record: Homo sapiens; assay: Immunostimulatory activity in CFSE-labeled human NK cells assessed as TLR7 agonist-induced cell proliferation at 2 to 200 nM after 6 days by FACS analysis; type: functional
B cell = assay: Immunostimulatory activity in CFSE-labeled human B cells assessed as TLR7 agonist-induced cell proliferation after 6 days by FACS analysis; type: functional, cell-based; details: 144 h
T-cell = assay: Immunostimulatory activity in CFSE-labeled human T cells assessed as TLR7 agonist-induced cell proliferation at 2 to 200 nM after 6 days by FACS analysis; type: functional, cell-based

Row | Activity [1] | Activity [2] | Activity [3] | Activity [4] | SMILES | Activity (HEK293) | Activity (Homo sapiens) | EC50 (B cell) [nM] | Activity (T-cell)
1 | inactive |  | inactive | Active | CCCCOc1nc(N)c2nc(O)n(Cc3ccc(C#CCN)cc3)c2n1 | inactive |  |  | 
2 | inactive |  | inactive | Active | CCCCOc1nc(N)c2nc(O)n(Cc3ccc(C(=O)O)cc3)c2n1 | inactive | inactive | 480 | inactive
3 | inactive |  | inactive | Active | CCCCOc1nc(N)c2nc(O)n(Cc3ccc(C#CCO)cc3)c2n1 | inactive | inactive | 58.3 | inactive
4 | inactive |  | inactive | Active | CCCCOc1nc(N)c2nc(O)n(Cc3ccc(C(=O)NCCN)cc3)c2n1 | inactive | inactive | 52.4 | inactive
5 | inactive |  | inactive |  | CCCCOc1nc(N)c2nc(NCC)n(Cc3ccccc3)c2n1 | inactive |  |  | 
6 | inactive |  | inactive | Active | CCCCOc1nc(N)c2nc(O)n(Cc3ccc(CCCN)cc3)c2n1 | inactive |  |  | 
7 | inactive |  | inactive | Active | CCCCOc1nc(N)c2nc(O)n(Cc3ccc(I)cc3)c2n1 | inactive | inactive | 126 | inactive
8 | inactive |  | inactive | Active | CCCCOc1nc(N)c2nc(O)n(Cc3ccc(C(=O)NCCOCCOCCN)cc3)c2n1 | inactive | inactive | 26 | inactive
9 | inactive | inactive | inactive | Active | CCCCOc1nc(N)c2nc(O)n(Cc3ccc(C(=O)NCCCCN)cc3)c2n1 | inactive | inactive | 47.4 | inactive
10 | inactive |  | inactive | Active | CCCCOc1nc(N)c2nc(S)n(Cc3ccccc3)c2n1 | inactive | inactive | 2690 | inactive

Continued, compound first:

Row | SMILES | Activity [1] | Activity [2] | Activity [3] | Activity [4] | Activity (HEK293) | Activity (Homo sapiens) | EC50 (B cell) [nM] | Activity (T-cell)
11 | CCCCOc1nc(N)c2nc(SCc3ccc(C#N)cc3)n(Cc3ccccc3)c2n1 | inactive | inactive | inactive |  | inactive |  |  | 
12 | CCCCOc1nc(N)c2c(n1)n(Cc1ccccc1)c(=O)n2Cc1ccccc1 | inactive | inactive | inactive |  | inactive |  |  | 
13 | CCCCOc1nc(N)c2nc(SCc3ccccc3)n(Cc3ccccc3)c2n1 | inactive | inactive | inactive |  | inactive |  |  | 
14 | CCCCOc1nc(N)c2nc(SCCCCSc3nc4c(N)nc(OCCCC)nc4n3Cc3ccccc3)n(Cc3ccccc3)c2n1 | inactive | inactive | inactive |  | inactive |  |  | 
15 | CCCCOc1nc(N)c2nc(SCC(=O)O)n(Cc3ccccc3)c2n1 | inactive | inactive | inactive |  | inactive |  |  | 
16 | CCCCOc1nc(N)c2nc(O)n(Cc3ccc(C(=O)NCCOCCOCCNC(=O)CCC(=O)N4Cc5ccccc5C#Cc5ccccc54)cc3)c2n1 | inactive |  | inactive | Active | inactive |  |  | 
17 | CCCCOc1nc(N)c2nc(SCC(=O)OC(C)(C)C)n(Cc3ccccc3)c2n1 | inactive | inactive | inactive |  | inactive |  |  | 
18 | CCCCOc1nc(N)c2nc(SCc3ccc(Br)cc3)n(Cc3ccccc3)c2n1 | inactive | inactive | inactive |  | inactive |  |  | 
19 | CCCCOc1nc(N)c2nc(OCc3ccccc3)n(Cc3ccccc3)c2n1 | inactive | inactive | inactive |  | inactive |  |  | 
